Patent US20210009914A1, “NOVEL APPLICATIONS OF PULSED ELECTRIC FIELD AND E-BEAM TECHNOLOGY” (KEMIN INDUSTRIES, INC., priority 2019, published 2021)

Key:
[1] = tested on: Total Enterobacteriaceae; experiment: Total Enterobacteriaceae count in naturally contaminated broiler feed, antimicrobial products with/without PEF (Example 1); type: cell-based
Method: (§1) Feed materials. Pig feed, naturally contaminated with Enterobacteriaceae, was obtained from Feed Design Lab (the Netherlands). The naturally contaminated pig feed, not treated with an antimicrobial product, was diluted with mash broiler feed obtained from AVEVE until the required contamination level was obtained (Enterobacteriaceae contamination of 4 log cfu/g). After this dilution, the mash feed was mixed intensively to ensure a homogeneous contamination.
PEF treatments. PEF experiments were carried out using the PEFPilot™ System (220V, 50 Hz) at ELEA GmbH (Quakenbrück, Germany) at room temperature. The feed was stored at room temperature (20-25° C.) before treatment. An amount of 50 percent additional water (tap-water at room temperature), was added to the feed to prevent the formation of air bubbles, which increase the chance for a dielectric breakdown and arching. Before PEF treatment, the treatment chamber was filled with the feed, the feed was leveled and pressed using a plastic stick. […] Exponential decay pulses with width of 40 microseconds and frequency of 2 Hz were applied. An electric field strength of 5 kV/cm and specific energies of 12 (60 pulses), 120 (600 pulses) and 168 kJ/kg (840 pulses) were applied. The treatment chamber was rinsed after each treatment and pre-cooled in ice-water before new feed samples were added. Each PEF treatment consisted of at least two replicates. The temperature of the feed was measured just after the PEF treatment.
Application of antimicrobial products. The products were sprayed on a thin layer of the feed (portions of 300 g) by use of a nebulizer. The product Sal CURB® Ba Liquid (lot number: 1911110883) was dosed at 6 kg/T. Formic acid 85% (RM00672, lot 20000200403), the main component of Sal CURB Ba Liquid (i.e. 50% formic acid) was dosed at 3 kg/T and 6 kg/T. Sal CURB Ba Liquid also contains a mixture of different surfactants.
Test setups. The effect of the application of the antimicrobials alone on the naturally contaminated feed was tested in a separate experiment. In a first series of PEF experiments (first trial), the antimicrobial products were sprayed on the feed just after applying the PEF treatments, while for the second series of experiments (second trial) the antimicrobial products were applied on the feed before the PEF treatments.
(§2) Determination of total Enterobacteriacea level. The total Enterobacteriaceae level (TEC) of the feed samples not treated and treated with the antimicrobial products and/or PEF was determined at 24 h after PEF/product treatments. Three suspensions of each feed sample were prepared by mixing 10 g of the sample with 90 g of saline and by homogenizing the samples for 60 seconds in a Stomacher. RAPID' Enterobacteriaceae plates (Bio-Rad, 3564004) were inoculated using a spiral plate counter (Eddy Jet, IUL Instruments). The plates were incubated overnight at 37° C. for 24 h. After incubation, the colonies were counted manually. To obtain accurate results, the minimum number of colonies counted per plate was specified as 10 (a lower number gives less statistically significant results). Values below this limit, at the lowest sample dilution (100 cfu/g), were reported to a value equal to half of this limit (50 cfu/g). The colony-forming units were log-transformed prior to the statistical analyses. The microbiological data were analyzed using the Statgraphics Centurion XVI software (Statpoint Technologies, Inc., Virginia, USA). All data were subjected to one-way ANOVA and differences were separated using the least significant differences procedure. All statements of significance were based on a P-value less than 0.05, unless otherwise specified.

[2] = tested on: Total Enterobacteriaceae; experiment: Total Enterobacteriaceae count in naturally contaminated broiler feed, products before PEF at reduced additional water (Example 2); type: cell-based; conditions: 3 kg/T before PEF 5 kV/cm, medium 120 kJ/kg; for Log reduction: vs control of same water level
Method: as §1
Application of antimicrobial products. The products were sprayed on a thin layer of the feed (portions of 500 g) by use of a nebulizer. The product Sal CURB® Ba Liquid (lot number: 191111883) was dosed at 6 kg/T. Formic acid 85% (RM00672, lot 20000200403), the main component of Sal CURB Ba Liquid (i.e. 50% formic acid) was dosed at 3 kg/T and 6 kg/T. Sal CURB Ba Liquid also contains a mixture of different surfactants. After treatment, the samples were sent to ELEA GmbH (Quakenbrück, Germany) for PEF treatments.
PEF treatments. PEF experiments were carried out using the PEFPilot™ System (220V, 50 Hz) at ELEA GmbH (Quakenbrück, Germany) at room temperature. The PEF treatments were performed at 8 days after application of the antimicrobial products. The feed samples were stored at room temperature (20-25° C.) before PEF treatment. Each PEF treatment consisted of at least two replicates. Quantities of 50, 20 and 15 percent additional water (tap-water at room temperature), were added to the feed to prevent the formation of air bubbles, which increase the chance for a dielectric breakdown and arching. Before PEF treatment, the treatment chamber was filled with the feed, the feed was leveled and pressed using a plastic stick. […] Exponential decay pulses with width of 40 microseconds and frequency of 2 Hz were applied. An electric field strength of 5 kV/cm and a specific energetic level of 120 kJ/kg (600 pulses) was applied. The treatment chamber was rinsed after each treatment and pre-cooled in ice-water before new feed samples were added.
Test setups. The antimicrobial products were always applied on the feed before the PEF treatments. The different quantities of added tap-water were mixed homogeneously in the feed just before the PEF treatments. After the treatments, all feed samples were stored at room temperature.
as §2, with “products” for “products and/or PEF”, “at 10 days after product treatment. The TEC of the PEF treated samples was determined at 48” for “at 24”, “after PEF treatment.” for “after PEF/product treatments.”, “counted manually, as explained in the Internal Instruction.” for “counted manually.”

For `O=CO` [Formic acid], the “Log (cfu/g)” value ([1]; 3 kg/T applied after PEF 5 kV/cm, high intensity 168 kJ/kg, 50% additional water) was 3.34 h Log (cfu/g), the Log reduction ([1]; 3 kg/T applied after PEF 5 kV/cm, high intensity 168 kJ/kg, vs no-treatment control) was 0.92 log and the “Log (cfu/g)” value ([1]; 3 kg/T applied after PEF 5 kV/cm, low intensity 12 kJ/kg, 50% additional water) was 3.94 de Log (cfu/g). For the same molecule, the Log reduction ([1]; 3 kg/T applied after PEF 5 kV/cm, low intensity 12 kJ/kg, vs no-treatment control) was 0.32 log, the “Log (cfu/g)” value ([1]; 3 kg/T applied after PEF 5 kV/cm, medium intensity 120 kJ/kg, 50% additional water) was 4.10 ad Log (cfu/g) and the Log reduction ([1]; 3 kg/T applied after PEF 5 kV/cm, medium intensity 120 kJ/kg, vs no-treatment control) was 0.16 log. The “Log (cfu/g)” value ([1]; 3 kg/T applied before PEF 5 kV/cm, high intensity 168 kJ/kg, 50% additional water) was 2.95 d Log (cfu/g), the Log reduction ([1]; 3 kg/T applied before PEF 5 kV/cm, high intensity 168 kJ/kg, vs no-treatment control) was 2.14 log and the “Log (cfu/g)” value ([1]; 3 kg/T applied before PEF 5 kV/cm, medium intensity 120 kJ/kg, 50% additional water) was 3.58 c Log (cfu/g). For the same molecule, the Log reduction ([1]; 3 kg/T applied before PEF 5 kV/cm, medium intensity 120 kJ/kg, vs no-treatment control) was 1.51 log, the “Log (cfu/g)” value ([1]; 3 kg/T, no PEF, 50% additional water (Table 5, trial 2)) was 4.15 b Log (cfu/g) and the Log reduction ([1]; 3 kg/T, no PEF, vs no-treatment control (Table 5, trial 2)) was 0.94 log. The “Log (cfu/g)” value ([1]; 3 kg/T, product alone, no PEF (Table 3)) was 3.80 ab Log (cfu/g), the Log reduction ([1]; 3 kg/T, product alone, no PEF, vs untreated control (Table 3)) was 0.37 log and the “Log (cfu/g)” value ([1]; 6 kg/T applied after PEF 5 kV/cm, high intensity 168 kJ/kg, 50% additional water) was 3.06 i Log (cfu/g). The Log reduction ([1]; 6 kg/T applied after PEF 5 kV/cm, high intensity 168 kJ/kg, vs no-treatment control) was 1.20 log, the “Log (cfu/g)” value ([1]; 6 kg/T applied after PEF 5 kV/cm, low intensity 12 kJ/kg, 50% additional water) was 4.03 ade Log (cfu/g) and the Log reduction ([1]; 6 kg/T applied after PEF 5 kV/cm, low intensity 12 kJ/kg, vs no-treatment control) was 0.23 log. For the same molecule, the “Log (cfu/g)” value ([1]; 6 kg/T applied after PEF 5 kV/cm, medium intensity 120 kJ/kg, 50% additional water) was 3.71 fg Log (cfu/g), the Log reduction ([1]; 6 kg/T applied after PEF 5 kV/cm, medium intensity 120 kJ/kg, vs no-treatment control) was 0.55 log and the “Log (cfu/g)” value ([1]; 6 kg/T applied before PEF 5 kV/cm, high intensity 168 kJ/kg, 50% additional water) was 1.70 f^ Log (cfu/g). For the same molecule, the Log reduction ([1]; 6 kg/T applied before PEF 5 kV/cm, high intensity 168 kJ/kg, vs no-treatment control) was 3.39 log, the “Log (cfu/g)” value ([1]; 6 kg/T applied before PEF 5 kV/cm, medium intensity 120 kJ/kg, 50% additional water) was 2.25 e Log (cfu/g) and the Log reduction ([1]; 6 kg/T applied before PEF 5 kV/cm, medium intensity 120 kJ/kg, vs no-treatment control) was 2.84 log. For the same molecule, the “Log (cfu/g)” value ([1]; 6 kg/T, no PEF, 50% additional water (Table 5, trial 2)) was 3.55 c Log (cfu/g), the Log reduction ([1]; 6 kg/T, no PEF, vs no-treatment control (Table 5, trial 2)) was 1.54 log and the “Log (cfu/g)” value ([1]; 6 kg/T, product alone, no PEF (Table 3)) was 3.33 b Log (cfu/g). The Log reduction ([1]; 6 kg/T, product alone, no PEF, vs untreated control (Table 3)) was 0.84 log, the “Log (cfu/g)” value ([2]; 15% additional water) was 2.83 c Log (cfu/g) and the Log reduction ([2]; 15% additional water) was 1.44 log. For the same molecule, the Log reduction ([2]; 15% additional water, listed as formic acid) was 1.4 log, the “Log (cfu/g)” value ([2]; 20% additional water) was 2.30 d Log (cfu/g) and the Log reduction ([2]; 20% additional water) was 2.20 log. The “Log (cfu/g)” value ([2]; 50% additional water) was 2.82 c Log (cfu/g) and the Log reduction ([2]; 50% additional water) was 1.60 log.
